Source: patent publication US10952992B2, “Methods of treating intraocular pressure with activators of Tie-2” (Aerpio Pharmaceuticals, Inc., priority 2015, dated 2021)
Values joined by “and” are separate entries in the source; they are usually repeats but may differ in a detail not shown here. Identical values can stand only once. Counter-ions that a name gives are not always drawn.

Test: Example 2 plasma concentrations and pharmacokinetics after topical ocular, subcutaneous, intravitreal administration
Format: in vivo, male New Zealand White rabbits
Protocol: To measure the concentration of Compound 1 in plasma and ocular tissues following topical ocular, subcutaneous, and intravitreal administration, New Zealand White rabbits were administered Compound 1, and plasma and ocular samples were collected at pre-determined time points. Compound 1 formulations were prepared fresh on each day of dosing.
Ocular tissue samples from both eyes of each animal were collected and weights were recorded. Plasma and ocular tissue sample concentrations of Compound 1 were determined by LC-MS/MS.
New Zealand White rabbits weighing 2.5 to 3.5 kg were used on this study. Rabbits were housed one per cage. Animals were not fasted and only healthy animals with no ocular illness were used. Two rabbits per group were sacrificed at each of four ocular tissue sampling time points for a total of eight rabbits per group.
Animals were anesthetized for ocular (topical) and intravitreal dosing following the 12IA7 IACUC protocol. Each rabbit received a bolus dose of test formulation either via topical ocular administration 3 times daily on Days 1 and 2 (at 0, 6, and 12 hours), and once on Day 3 (at 0 hours) into both eyes; via intravitreal administration into both eyes once on Day 1 (at 0 hours); or via subcutaneous administration 2 times daily on Days 1 and 2 (at 0 and 8 hours) and once daily on Day 3 (at 0 hours). Doses were given within an approximately 1 hour window each day where applicable.
Each blood sample was collected on Day 3 post dose at pre-determined time points from the rabbits via an ear vessel and placed into chilled polypropylene tubes containing sodium heparin as an anticoagulant. Samples were spun by centrifuge at 4° C. and 3,000× g for 5 minutes. Samples were maintained chilled throughout processing. Each plasma sample was placed on dry ice and stored in a freezer at −60° C. to −80° C. pending bioanalysis.
An LC-MS/MS method was developed for the determination of Compound 1 in rabbit aqueous tissues (plasma, aqueous and vitreous humor) and solid ocular tissue samples. A pre-study standard curve was analyzed to determine the specificity, range, and lower limit of quantitation of the method. Plasma and tissue homogenate study samples were extracted and analyzed. All the samples were treated identically to the standards.
One eight-point standard curve was used in each analytical batch. To be accepted, each batch must have had at least five of eight standards with accuracy within ±20% of nominal, except at the lower limit of quantification (LLOQ), where ±25% was acceptable.
Pharmacokinetic parameters were calculated from the time course of the plasma concentration. The maximum plasma concentration (Cmax) and time to the maximum plasma drug concentration (Tmax) were the observed values for each concentration-time profiles. The area under the plasma drug concentration-time curve (AUClast, with last being from time 0 to the last quantifiable point) was calculated using the trapezoidal formula. The mean residence time MRTlast was calculated as a ratio of AUMClast (area under the first movement curve) to AUClast.

[1] = Group 1: topical ocular 1.2 mg/eye (~0.7 mg/kg/dose), 15% HPβCD + 1% dextrose solution
[2] = Group 1: topical ocular 1.2 mg/eye (~0.7 mg/kg/dose), 15% HPβCD + 1% dextrose, 0.50 hr
[3] = Group 1: topical ocular 1.2 mg/eye (~0.7 mg/kg/dose), 15% HPβCD + 1% dextrose, 1.0 hr
[4] = Group 1: topical ocular 1.2 mg/eye (~0.7 mg/kg/dose), 15% HPβCD + 1% dextrose, 2.0 hr
[5] = Group 1: topical ocular 1.2 mg/eye (~0.7 mg/kg/dose), 15% HPβCD + 1% dextrose, 4.0 hr
[6] = Group 2: subcutaneous 5 mg/kg/dose, 15% HPβCD + 1% dextrose solution
[7] = Group 2: subcutaneous 5 mg/kg/dose, 15% HPβCD + 1% dextrose solution, 0.25 hr
[8] = Group 2: subcutaneous 5 mg/kg/dose, 15% HPβCD + 1% dextrose solution, 0.50 hr
[9] = Group 2: subcutaneous 5 mg/kg/dose, 15% HPβCD + 1% dextrose solution, 1.0 hr
[10] = Group 2: subcutaneous 5 mg/kg/dose, 15% HPβCD + 1% dextrose solution, 2.0 hr
[11] = Group 2: subcutaneous 5 mg/kg/dose, 15% HPβCD + 1% dextrose solution, 4.0 hr
[12] = Group 2: subcutaneous solution, normalized by nominal dose 5 mg/kg
[13] = Group 4: intravitreal 2.5 mg/eye (~1.55 mg/kg), 10% HPβCD + 2% dextrose solution
[14] = Group 4: intravitreal 2.5 mg/eye (~1.55 mg/kg), 10% HPβCD + 2% dextrose solution, 1.0 hr
[15] = Group 4: intravitreal 2.5 mg/eye (~1.55 mg/kg), 10% HPβCD + 2% dextrose solution, 3.0 hr
[16] = Group 4: intravitreal 2.5 mg/eye (~1.55 mg/kg), 10% HPβCD + 2% dextrose solution, 6.0 hr
[17] = Group 4: intravitreal 2.5 mg/eye (~1.55 mg/kg), 10% HPβCD + 2% dextrose solution, 24.0 hr
[18] = Group 4: intravitreal 2.5 mg/eye (~1.55 mg/kg), 10% HPβCD + 2% dextrose solution, 48.0 hr
[19] = Group 4: intravitreal 2.5 mg/eye (~1.55 mg/kg), 10% HPβCD + 2% dextrose solution, 72.0 hr
[20] = Group 4: intravitreal solution, normalized by nominal dose 1.55 mg/kg

COC(=O)N[C@@H](Cc1ccccc1)C(=O)N[C@@H](Cc1ccc(NS(=O)(=O)O)cc1)c1csc(-c2cccs2)n1 [Compound 1 sodium salt]
plasma AUClast (± SE) [1]: 11.8 ± 5.70 ng·h/mL and 11.8 ng·h/mL
plasma Cmax (± SE) [1]: 7.48 ± 5.53 ng/mL and 7.48 ng/mL
plasma MRTlast [1]: 2.98 h
plasma tmax [1]: 4.00 h
plasma tmax (Group 1: topical ocular 1.2 mg/eye (~0.7 mg/kg/dose), 15% HPβCD + 1% dextrose solution, listed as Compound 1 (sodium salt)): 4 h
plasma Average conc. [2]: 3.03 ng/mL
plasma Conc., individual rabbit [2]: 3.84 ng/mL and 2.21 ng/mL
plasma Average conc. [3]: 1.46 ng/mL
plasma Conc., individual rabbit [3]: 1.28 ng/mL and 1.63 ng/mL
plasma Average conc. [4]: 1.14 ng/mL
plasma Conc., individual rabbit [4]: 2.04 ng/mL and 0.241 ng/mL
plasma Average conc. [5]: 7.48 ng/mL
plasma Conc., individual rabbit [5]: 13.0 ng/mL and 1.95 ng/mL
plasma AUClast, dose normalized (Group 1: topical ocular, normalized by nominal dose 0.7 mg/kg): 16.8 ± 8.15 kg·ng·h/mL/mg and 16.8 kg·ng·h/mL/mg
plasma AUClast (± SE) [6]: 1555 ± 195 ng·h/mL and 1555 ng·h/mL
plasma AUC∞ [6]: 1560 ng·h/mL
plasma Cmax (± SE) [6]: 1525 ± 115 ng/mL and 1525 ng/mL
plasma MRTlast [6]: 0.87 h
plasma t1/2 [6]: 0.47 h
plasma tmax [6]: 0.25 h
plasma Average conc. [7]: 1525 ng/mL
plasma Conc., individual rabbit [7]: 1640 ng/mL and 1410 ng/mL
plasma Average conc. [8]: 1097 ng/mL
plasma Conc., individual rabbit [8]: 883 ng/mL and 1310 ng/mL
plasma Average conc. [9]: 646 ng/mL
plasma Conc., individual rabbit [9]: 664 ng/mL and 628 ng/mL
plasma Average conc. [10]: 180 ng/mL
plasma Conc., individual rabbit [10]: 55.5 ng/mL and 305 ng/mL
plasma Average conc. [11]: 7.76 ng/mL
plasma Conc., individual rabbit [11]: 7.98 ng/mL and 7.53 ng/mL
plasma AUClast, dose normalized [12]: 311 ± 38.9 kg·ng·h/mL/mg and 311 kg·ng·h/mL/mg
plasma AUC∞, dose normalized [12]: 312 kg·ng·h/mL/mg
plasma AUClast (± SE) [13]: 953 ± 91.1 ng·h/mL and 953 ng·h/mL
plasma AUC∞ [13]: 956 ng·h/mL
plasma Cmax (± SE) [13]: 39.8 ± 2.30 ng/mL and 39.8 ng/mL
plasma MRTlast [13]: 15.1 h
plasma t1/2 [13]: 8.08 h
plasma tmax [13]: 3.00 h
plasma Average conc. [14]: 32.3 ng/mL
plasma Conc., individual rabbit [14]: 33.2 ng/mL and 31.3 ng/mL
plasma Average conc. [15]: 39.8 ng/mL
plasma Conc., individual rabbit [15]: 37.5 ng/mL and 42.1 ng/mL
plasma Average conc. [16]: 36.8 ng/mL
plasma Conc., individual rabbit [16]: 44.3 ng/mL and 29.3 ng/mL
plasma Average conc. [17]: 16.9 ng/mL
plasma Conc., individual rabbit [17]: 19.0 ng/mL and 14.7 ng/mL
plasma Average conc. [18]: 2.58 ng/mL
plasma Conc., individual rabbit [18]: 2.70 ng/mL and 2.45 ng/mL
plasma Average conc. [19]: 0.27 ng/mL
plasma Conc., individual rabbit [19]: 0.215 ng/mL and 0.333 ng/mL
plasma tmax (Group 4: intravitreal 2.5 mg/eye (~1.55 mg/kg), 10% HPβCD + 2% dextrose solution, listed as Compound 1 (sodium salt)): 3 h
plasma AUClast, dose normalized [20]: 615 ± 58.8 kg·ng·h/mL/mg and 615 kg·ng·h/mL/mg
plasma AUC∞, dose normalized [20]: 617 kg·ng·h/mL/mg
mean plasma AUClast between the two dose formulations (intravitreal administration): comparable
mean plasma Cmax, sodium salt solution compared to free acid suspension (intravitreal administration): approximately 2 fold
plasma concentrations vs free acid (FIG. 5) (intravitreal administration, up to twenty-four hours post-administration): slightly higher plasma concentrations as compared to the free acid
mean plasma AUClast, sodium salt solution compared to free acid suspension (subcutaneous administration): approximately 2 fold
mean plasma Cmax, sodium salt solution compared to free acid suspension (subcutaneous administration): approximately 3 fold
mean plasma Tmax (subcutaneous administration, postdose): 0.25 h
plasma concentrations vs free acid (FIG. 4) (subcutaneous administration, up to one hour post-administration): generally increased plasma concentrations as compared to the free acid
plasma concentration (FIG. 3) (topical ocular administration, 4 hour mark): increase in Compound 1 plasma concentration

COC(=O)N[C@@H](Cc1ccccc1)C(=O)N[C@@H](Cc1ccc(NS(=O)(=O)O)cc1)c1csc(-c2cccs2)n1 [Compound 1]
systemic exposure, as measured in plasma (all routes and formulations): confirmed
